Source: patent publication US8394578B2, “Method of forming resist pattern and negative tone-development resist composition” (Tokyo Ohka Kogyo Co., Ltd., priority 2010, dated 2013)

Assay: Solubility in organic solvent (Test Example 1)
Assay type: physicochemical
Details: monomer, stirred for 1 hour; for degree of dissolution in MEK: 1 g added to MEK at 25° C.; for degree of dissolution in PGME: 1 g added to PGME at 25° C.; for degree of dissolution in PGMEA: 1 g added to PGMEA at 25° C.; for degree of dissolution in Butyl acetate: 1 g added to butyl acetate at 25° C.
Excerpt: Among the monomers used in Polymer Synthesis Examples 1 to 4 and Comparative Polymer Synthesis Examples 1 to 4, with respect to compounds (m0-1) and (m0-2) which are classified as a structural unit (a0), compounds (m2-1) and (m2-2) which are classified as a structural unit (a2), a compound in which the —S(═O)2— portion of the compound (m0-1) has been replaced with —C(═O)— (a compound in which the cyclic group within the compound (m0-1) has been replaced with the cyclic group of the compound (m2-1), hereafter referred to as compound (m2-3)), and polymeric compounds 1, 1′ and 4′, the solubility in an organic solvent was evaluated as follows.
1 g of each compound was added to an organic solvent indicated in Table 1 at 25° C., and stirred for 1 hour. After the stirring, the degree of dissolution of each compound in each organic solvent was evaluated with the following criteria. […]

| SMILES | degree of dissolution in MEK | degree of dissolution in PGME | degree of dissolution in PGMEA | degree of dissolution in Butyl acetate |
| --- | --- | --- | --- | --- |
| C=C(C)C(=O)OCC(=O)OC1C2CC3C1OS(=O)(=O)C3C2 (stereo not shown) [Compound (m0-1)] | B (15% by weight or more but less than 40% by weight) | C (7% by weight or more but less than 15% by weight) | C (7% by weight or more but less than 15% by weight) | C (7% by weight or more but less than 15% by weight) |
| C=C(C)C(=O)OC1C2CC3C1OS(=O)(=O)C3C2 (stereo not shown) [Compound (m0-2)] | B (15% by weight or more but less than 40% by weight) | C (7% by weight or more but less than 15% by weight) | C (7% by weight or more but less than 15% by weight) | D (less than 7% by weight) |
| C=C(C)C(=O)OC1C2CC3C(=O)OC1C3C2 (stereo not shown) [Compound (m2-1)] | B (15% by weight or more but less than 40% by weight) | C (7% by weight or more but less than 15% by weight) | B (15% by weight or more but less than 40% by weight) | C (7% by weight or more but less than 15% by weight) |
| C=C(C)C(=O)OC1CCOC1=O (stereo not shown) [Compound (m2-2)] | A (40% by weight or more) | A (40% by weight or more) | A (40% by weight or more) | A (40% by weight or more) |
